Experimental findings from patent US20240376121A1, “COMPOUNDS AND USES THEREOF” (Foghorn Therapeutics Inc., priority 2021, published 2024) are described below.

The target of assay [1] is T1, HiBit-BRM fusion protein (Homo sapiens, UniProt P51531).
T1 construct: expressed in transfected cells
In words: HiBiT-BRM cell-based degradation assay (Nano-Glo HiBiT Lytic Detection). The following applies: stable HeLa cell line expressing HiBiT-BRM, 24 h incubation; for BRM HiBit Degradation Maximum (%): top dose 30 μM; for DC50: read-out: BRM HiBit Degradation IC50. A digest of the protocol: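 Residual HiBiT-BRM in a stable HeLa line was measured by Nano-Glo lytic luminescence after 24 h compound exposure (top final dose 30 μM, 3-fold, 10 points, duplicate). Values are % degradation, scaled between DMSO-treated cells and cells given 2 μM of a known BRM/BRG1 degrader.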

The target of assay [2] is T2, HiBit-BRG1 fusion protein (Homo sapiens, UniProt P51532).
T2 construct: expressed in transfected cells
In words: HiBiT-BRG1 cell-based degradation assay (Nano-Glo HiBiT Lytic Detection). The following applies: stable HeLa cell line expressing HiBit-BRG1 and LgBit, 24 h incubation; for Dmax: top dose 30 μM, read-out: BRG1 HiBit Degradation Maximum (%); for DC50: read-out: BRMG1 HiBit Degradation IC50. Put shortly:
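Degradation was scored from HiBiT lytic luminescence, scaled between DMSO-treated wells and wells given 2 μM of a standard BRM/BRG1 degrader. Cells were a stable HeLa HiBiT-BRG1/LgBiT line dosed for 24 h, ten concentrations in 3-fold steps from 30 μM, in duplicate.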
In general terms: The HiBiT peptide binds its large partner to form an active luciferase.

T2 sequence (P51532 whole entry, the tested form may be a part): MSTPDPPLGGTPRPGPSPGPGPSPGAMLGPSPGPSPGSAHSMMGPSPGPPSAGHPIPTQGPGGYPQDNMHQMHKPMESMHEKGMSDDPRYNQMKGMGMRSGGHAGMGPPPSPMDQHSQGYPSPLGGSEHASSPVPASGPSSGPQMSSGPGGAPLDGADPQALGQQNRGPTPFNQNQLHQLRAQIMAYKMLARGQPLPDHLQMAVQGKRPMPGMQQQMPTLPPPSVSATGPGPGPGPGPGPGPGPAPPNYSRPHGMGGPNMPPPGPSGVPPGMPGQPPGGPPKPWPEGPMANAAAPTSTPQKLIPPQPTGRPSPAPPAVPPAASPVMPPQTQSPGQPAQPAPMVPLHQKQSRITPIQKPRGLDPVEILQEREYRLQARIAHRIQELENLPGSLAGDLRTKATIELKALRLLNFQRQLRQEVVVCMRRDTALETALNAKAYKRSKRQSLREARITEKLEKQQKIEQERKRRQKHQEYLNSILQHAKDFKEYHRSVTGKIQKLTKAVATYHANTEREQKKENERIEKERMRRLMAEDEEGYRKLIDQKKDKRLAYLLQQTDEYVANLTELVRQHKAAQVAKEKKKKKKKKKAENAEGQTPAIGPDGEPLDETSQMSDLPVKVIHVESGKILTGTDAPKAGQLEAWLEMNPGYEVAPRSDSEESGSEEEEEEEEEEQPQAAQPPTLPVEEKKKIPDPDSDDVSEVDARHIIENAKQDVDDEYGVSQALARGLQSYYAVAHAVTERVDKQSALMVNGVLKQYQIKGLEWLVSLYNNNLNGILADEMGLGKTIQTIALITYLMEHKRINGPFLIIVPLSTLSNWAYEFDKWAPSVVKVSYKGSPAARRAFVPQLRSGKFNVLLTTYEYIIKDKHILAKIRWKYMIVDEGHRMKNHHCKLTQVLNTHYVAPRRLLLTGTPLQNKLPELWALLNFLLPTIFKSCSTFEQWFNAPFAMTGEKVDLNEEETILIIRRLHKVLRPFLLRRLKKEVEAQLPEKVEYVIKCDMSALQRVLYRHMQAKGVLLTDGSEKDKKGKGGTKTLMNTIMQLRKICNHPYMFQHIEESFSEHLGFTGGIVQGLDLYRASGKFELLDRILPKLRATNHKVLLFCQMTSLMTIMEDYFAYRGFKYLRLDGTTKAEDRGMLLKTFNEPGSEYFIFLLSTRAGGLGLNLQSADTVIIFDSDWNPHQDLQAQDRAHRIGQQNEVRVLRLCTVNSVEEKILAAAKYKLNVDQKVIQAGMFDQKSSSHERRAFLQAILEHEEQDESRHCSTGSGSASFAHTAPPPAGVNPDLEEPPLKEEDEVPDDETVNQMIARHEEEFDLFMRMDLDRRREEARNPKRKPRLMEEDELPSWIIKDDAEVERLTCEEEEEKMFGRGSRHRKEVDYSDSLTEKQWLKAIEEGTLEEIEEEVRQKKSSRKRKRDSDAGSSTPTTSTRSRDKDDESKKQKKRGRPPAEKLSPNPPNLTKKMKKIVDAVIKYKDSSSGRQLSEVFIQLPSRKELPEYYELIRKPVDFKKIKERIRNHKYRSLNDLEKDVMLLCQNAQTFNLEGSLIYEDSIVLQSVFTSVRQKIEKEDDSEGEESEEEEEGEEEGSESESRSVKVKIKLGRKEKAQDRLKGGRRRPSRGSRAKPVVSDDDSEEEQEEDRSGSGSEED
T1 sequence (P51531 whole entry, the tested form may be a part): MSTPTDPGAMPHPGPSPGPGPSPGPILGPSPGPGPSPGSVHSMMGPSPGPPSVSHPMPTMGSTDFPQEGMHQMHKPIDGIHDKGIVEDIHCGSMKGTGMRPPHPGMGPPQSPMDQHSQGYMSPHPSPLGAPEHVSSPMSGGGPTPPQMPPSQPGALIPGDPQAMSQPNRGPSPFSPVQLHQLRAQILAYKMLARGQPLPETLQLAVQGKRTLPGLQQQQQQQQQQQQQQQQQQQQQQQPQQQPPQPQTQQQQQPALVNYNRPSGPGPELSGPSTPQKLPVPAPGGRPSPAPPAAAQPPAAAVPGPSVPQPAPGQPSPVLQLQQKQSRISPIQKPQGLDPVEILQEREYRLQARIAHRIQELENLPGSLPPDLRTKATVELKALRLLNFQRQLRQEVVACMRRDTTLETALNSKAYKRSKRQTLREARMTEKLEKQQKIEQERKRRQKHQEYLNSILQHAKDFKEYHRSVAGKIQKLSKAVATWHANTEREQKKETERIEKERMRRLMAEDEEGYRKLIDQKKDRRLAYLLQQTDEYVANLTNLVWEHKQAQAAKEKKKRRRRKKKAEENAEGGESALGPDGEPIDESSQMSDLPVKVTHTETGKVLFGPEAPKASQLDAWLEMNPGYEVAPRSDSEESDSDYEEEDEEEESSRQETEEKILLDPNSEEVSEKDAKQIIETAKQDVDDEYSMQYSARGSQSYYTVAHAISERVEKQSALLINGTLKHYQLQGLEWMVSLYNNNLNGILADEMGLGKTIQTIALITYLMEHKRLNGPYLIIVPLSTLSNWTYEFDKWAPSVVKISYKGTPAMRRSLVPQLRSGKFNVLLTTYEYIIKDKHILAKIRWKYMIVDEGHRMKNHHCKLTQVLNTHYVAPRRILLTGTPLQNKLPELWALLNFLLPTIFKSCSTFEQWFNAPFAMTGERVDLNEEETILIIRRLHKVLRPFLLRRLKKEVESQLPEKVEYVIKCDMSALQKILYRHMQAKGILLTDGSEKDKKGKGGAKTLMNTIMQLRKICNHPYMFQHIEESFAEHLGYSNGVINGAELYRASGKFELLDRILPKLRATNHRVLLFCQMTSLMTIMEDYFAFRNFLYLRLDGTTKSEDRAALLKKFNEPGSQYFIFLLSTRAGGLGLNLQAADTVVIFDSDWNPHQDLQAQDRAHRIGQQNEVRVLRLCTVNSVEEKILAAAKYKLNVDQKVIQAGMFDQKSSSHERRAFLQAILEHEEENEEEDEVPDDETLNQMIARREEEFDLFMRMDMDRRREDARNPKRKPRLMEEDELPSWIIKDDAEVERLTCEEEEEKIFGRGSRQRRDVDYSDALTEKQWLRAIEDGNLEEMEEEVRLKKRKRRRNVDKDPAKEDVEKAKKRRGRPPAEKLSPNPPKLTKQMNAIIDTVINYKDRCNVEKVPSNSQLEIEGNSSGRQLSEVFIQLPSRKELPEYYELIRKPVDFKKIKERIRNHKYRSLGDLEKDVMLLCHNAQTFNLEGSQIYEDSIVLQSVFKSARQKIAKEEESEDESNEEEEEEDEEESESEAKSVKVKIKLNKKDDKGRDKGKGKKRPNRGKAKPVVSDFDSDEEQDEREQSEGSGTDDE

On to `Cc1ncsc1-c1ccc([C@H](C)NC(=O)[C@@H]2C[C@@H](O)CN2C(=O)C(c2cc(C3CC(N4CCC(c5sc6nnc(-c7ccccc7O)cc6c5C)CC4)C3)no2)C(C)C)cc1` (single isomer, unassigned) [Compound 34], for which, in assay [1], the “BRM HiBit Degradation Maximum (%)” value is on record as “A (“A” indicates maximum degradation ≥ 75%)” and the DC50 is at least 10 nM. In assay [2], the Dmax is below 50% and the DC50 was at least 1000 nM.
The like results for `Cc1ncsc1-c1ccc([C@H](C)NC(=O)[C@@H]2C[C@@H](O)CN2C(=O)[C@@H](c2cc([C@H]3CC[C@@H](N4CCC(c5sc6nnc(-c7ccccc7O)cc6c5C)CC4)CC3)no2)C(C)C)cc1` [Compound 37, (2S,4R)-4-hydroxy-1-((R)-2-(3-((1s,4S)-4-(4-(3-(2-hydroxyphenyl)-5-methylthieno[2,3-c]pyridazin-6-yl)piperidin-1-yl)cyclohexyl)isoxazol-5-yl)-3-methylbutanoyl)-N-((S)-1-(4-(4-methylthiazol-5-yl)phenyl)ethyl)pyrrolidine-2-carboxamide] were, in that order, “A (“A” indicates maximum degradation ≥ 75%)”, below 10 nM, below 50% and at least 1000 nM.
For `Cc1ncsc1-c1ccc([C@H](C)NC(=O)[C@@H]2C[C@@H](O)CN2C(=O)[C@@H](c2cc(OCCN3C[C@H]4C[C@@H]3C[C@H]4c3sc4nnc(-c5ccccc5O)cc4c3C)no2)C(C)C)cc1` [Compound 60, (2S,4R)-4-hydroxy-1-((R)-2-(3-(2-((1R,4S,5R)-5-(3-(2-hydroxyphenyl)-5-methylthieno[2,3-c]pyridazin-6-yl)-2-azabicyclo[2.2.1]heptan-2-yl)ethoxy)isoxazol-5-yl)-3-methylbutanoyl)-N-((S)-1-(4-(4-methylthiazol-5-yl)phenyl)ethyl)pyrrolidine-2-carboxamide], in assay [1], the “BRM HiBit Degradation Maximum (%)” value was “A (“A” indicates maximum degradation ≥ 75%)” and the DC50 was at least 10 nM. In addition, in assay [2], the Dmax was at least 50% and the DC50 is at least 100 nM.
Turning to `Cc1ncsc1-c1ccc([C@H](C)NC(=O)[C@@H]2C[C@@H](O)CN2C(=O)[C@@H](c2cc(C3CCN(C(=O)[C@H]4CCc5sc6nnc(-c7ccccc7O)cc6c5C4)CC3)no2)C(C)C)cc1` [Compound 47, (2S,4R)-4-hydroxy-1-((R)-2-(3-(1-((S)-3-(2-hydroxyphenyl)-5,6,7,8-tetrahydrobenzo[4,5]thieno[2,3-c]pyridazine-6-carbonyl)piperidin-4-yl)isoxazol-5-yl)-3-methylbutanoyl)-N-((S)-1-(4-(4-methylthiazol-5-yl)phenyl)ethyl)pyrrolidine-2-carboxamide], in assay [1], the “BRM HiBit Degradation Maximum (%)” value is on record as “A (“A” indicates maximum degradation ≥ 75%)” and the DC50 was at least 100 nM. Besides, in assay [2], the Dmax was below 50% and the DC50 was at least 1000 nM.
For the compound `Cc1ncsc1-c1ccc([C@H](C)NC(=O)[C@@H]2C[C@@H](O)CN2C(=O)[C@@H](c2cc(C3CCN(C(=O)[C@@H]4CCc5sc6nnc(-c7ccccc7O)cc6c5C4)CC3)no2)C(C)C)cc1` [Compound 48, (2S,4R)-4-hydroxy-1-((R)-2-(3-(1-((R)-3-(2-hydroxyphenyl)-5,6,7,8-tetrahydrobenzo[4,5]thieno[2,3-c]pyridazine-6-carbonyl)piperidin-4-yl)isoxazol-5-yl)-3-methylbutanoyl)-N-((S)-1-(4-(4-methylthiazol-5-yl)phenyl)ethyl)pyrrolidine-2-carboxamide], in assay [1], the “BRM HiBit Degradation Maximum (%)” value was “C (“C” indicates maximum degradation < 50%)” and the DC50 is at least 1000 nM. In assay [2], the Dmax was below 50% and the DC50 is at least 1000 nM.
For `Cc1ncsc1-c1ccc(CNC(=O)[C@@H]2C[C@@H](O)CN2C(=O)[C@@H](NC(=O)CCCCC(=O)N2CC(c3cc4cc(-c5ccccc5O)nnc4s3)C2)C(C)(C)C)cc1` [Compound 30], in assay [1], the “BRM HiBit Degradation Maximum (%)” value is reported as “C (“C” indicates maximum degradation < 50%)” and the DC50 is at least 1000 nM. In addition, in assay [2], the Dmax is below 50% and the DC50 was at least 1000 nM.
`Cc1ncsc1-c1ccc([C@H](C)NC(=O)[C@@H]2C[C@@H](O)CN2C(=O)[C@@H](c2cc(OCCN3CCC(c4csc5nnc(-c6ccccc6O)cc45)CC3)no2)C(C)C)cc1` [Compound 101, (2S,4R)-4-hydroxy-1-((R)-2-(3-(2-(4-(3-(2-hydroxyphenyl)thieno[2,3-c]pyridazin-5-yl)piperidin-1-yl)ethoxy)isoxazol-5-yl)-3-methylbutanoyl)-N-((S)-1-(4-(4-methylthiazol-5-yl)phenyl)ethyl)pyrrolidine-2-carboxamide]: in assay [1], the “BRM HiBit Degradation Maximum (%)” value is given as “C (“C” indicates maximum degradation < 50%)” and the DC50 was at least 1000 nM. For the same compound, in assay [2], the Dmax was below 50% and the DC50 was at least 1000 nM.
With `Cc1ncsc1-c1ccc(CNC(=O)[C@@H]2C[C@@H](O)CN2C(=O)[C@H](c2cc(N3CCOCC3)no2)C(C)C)c(OCCCN2CCC(c3sc4nnc(-c5ccccc5O)cc4c3C)CC2)c1` (single isomer, unassigned) [Compound 55], in assay [1], the “BRM HiBit Degradation Maximum (%)” value was “A (“A” indicates maximum degradation ≥ 75%)” and the DC50 is at least 1000 nM. Besides, in assay [2], the Dmax is below 50% and the DC50 was at least 1000 nM.
Consider `Cc1ncsc1-c1ccc(CNC(=O)[C@@H]2C[C@@H](O)CN2C(=O)[C@@H](NC(=O)C2(F)CC2)C(C)(C)C)c(OCCCN2CCC(c3cc4nnc(-c5ccccc5O)cc4s3)CC2)c1` [Compound 76, (2S,4R)-1-((S)-2-(1-fluorocyclopropane-1-carboxamido)-3,3-dimethylbutanoyl)-4-hydroxy-N-(2-(3-(4-(3-(2-hydroxyphenyl)thieno[3,2-c]pyridazin-6-yl)piperidin-1-yl)propoxy)-4-(4-methylthiazol-5-yl)benzyl)pyrrolidine-2-carboxamide], for which, in assay [1], the “BRM HiBit Degradation Maximum (%)” value is listed as “B (“B” indicates maximum degradation ≥ 50%)” and the DC50 was at least 10 nM. In addition, in assay [2], the Dmax was below 50% and the DC50 is at least 100 nM.
In the case of `Cc1ncsc1-c1ccc([C@H](C)NC(=O)[C@@H]2C[C@@H](O)CN2C(=O)[C@@H](c2cc(OCCN3CCC(N4CC(c5sc6nnc(-c7ccccc7O)cc6c5C)C4)CC3)no2)C(C)C)cc1` [Compound 100, (2S,4R)-4-hydroxy-1-((R)-2-(3-(2-(4-(3-(3-(2-hydroxyphenyl)-5-methylthieno[2,3-c]pyridazin-6-yl)azetidin-1-yl)piperidin-1-yl)ethoxy)isoxazol-5-yl)-3-methylbutanoyl)-N-((S)-1-(4-(4-methylthiazol-5-yl)phenyl)ethyl)pyrrolidine-2-carboxamide], in assay [1], the “BRM HiBit Degradation Maximum (%)” value is “A (“A” indicates maximum degradation ≥ 75%)” and the DC50 is at least 10 nM. For the same compound, in assay [2], the Dmax was below 50% and the DC50 is at least 1000 nM.
For `Cc1ncsc1-c1ccc(CNC(=O)[C@@H]2C[C@@H](O)CN2C(=O)[C@@H](NC(=O)CCC(=O)N2CCC(c3cc4nnc(-c5ccccc5O)cc4s3)CC2)C(C)(C)C)cc1` [Compound 79, (2S,4R)-4-hydroxy-1-((S)-2-(4-(4-(3-(2-hydroxyphenyl)thieno[3,2-c]pyridazin-6-yl)piperidin-1-yl)-4-oxobutanamido)-3,3-dimethylbutanoyl)-N-(4-(4-methylthiazol-5-yl)benzyl)pyrrolidine-2-carboxamide] the same measures were “C (“C” indicates maximum degradation < 50%)”, at least 100 nM, below 50% and at least 1000 nM.
For `Cc1ncsc1-c1ccc([C@H](C)NC(=O)[C@@H]2C[C@@H](O)CN2C(=O)[C@@H](c2cc(N(C)CCN3CC(c4cc5nnc(-c6ccccc6O)cc5s4)C3)no2)C(C)C)cc1` [Compound 112, (2S,4R)-4-hydroxy-1-((R)-2-(3-((2-(3-(3-(2-hydroxyphenyl)thieno[3,2-c]pyridazin-6-yl)azetidin-1-yl)ethyl)(methyl)amino)isoxazol-5-yl)-3-methylbutanoyl)-N-((S)-1-(4-(4-methylthiazol-5-yl)phenyl)ethyl)pyrrolidine-2-carboxamide] the same measures were “B (“B” indicates maximum degradation ≥ 50%)”, at least 100 nM, below 50% and at least 1000 nM.
As for `Cc1ncsc1-c1ccc(CNC(=O)[C@@H]2C[C@@H](O)CN2C(=O)[C@@H](NC(=O)CCN2CCC(c3cc4cc(-c5ccccc5O)nnc4s3)CC2)C(C)(C)C)cc1` [Compound 24], in assay [1], the “BRM HiBit Degradation Maximum (%)” value is given as “C (“C” indicates maximum degradation < 50%)” and the DC50 is at least 1000 nM. In addition, in assay [2], the Dmax is below 50% and the DC50 is at least 1000 nM.
As for `Cc1ncsc1-c1ccc([C@H](C)NC(=O)[C@@H]2C[C@@H](O)CN2C(=O)[C@@H](c2cc(OCCN3CCC(c4cc5nnc(-c6ccccc6O)cc5s4)CC3)no2)C(C)C)cc1` [Compound 97, (2S,4R)-4-hydroxy-1-((R)-2-(3-(2-(4-(3-(2-hydroxyphenyl)thieno[3,2-c]pyridazin-6-yl)piperidin-1-yl)ethoxy)isoxazol-5-yl)-3-methylbutanoyl)-N-((S)-1-(4-(4-methylthiazol-5-yl)phenyl)ethyl)pyrrolidine-2-carboxamide], in assay [1], the “BRM HiBit Degradation Maximum (%)” value is “A (“A” indicates maximum degradation ≥ 75%)” and the DC50 was below 10 nM. In assay [2], the Dmax was below 50% and the DC50 was at least 1000 nM.
